Data published in US20250257077A1, “BRIDGED BICYCLIC HETEROCYCLOALKYL PYRIDO-[3,4-d]PYRIDAZINE AMINE DERIVATIVES USEFUL AS NLRP3 INHIBITORS” (Ventus Therapeutics U.S., Inc., priority 2022, published 2025).
≈ marks a conversion by molar mass, not a printed value. Like-named read-outs stand apart in the source and are kept apart here.

Columns and labels:
[1] = Brain Levels (Kp and Kpu,u); type: in vivo, CDI mice; settings: for Kp at 24 h: mice dosed at 20 mpk PO, whole brain AUC over 24 h divided by plasma AUC
Method: (iv) Brain Levels (Kp and Kpu,u)—NLRP3
The in vivo total brain to plasma ratio was assessed in CDI mice after oral administration of the compound. Blood was collected at several timepoints up to 24 h, and transferred into plastic micro centrifuge tubes with EDTA-K2 as anticoagulant. Blood samples were centrifuged at 4000 g for 5 minutes at 4° C., to obtain plasma, then immediately frozen and stored at −75±15° C., prior to analysis. Animals were terminally anaesthetized with a rising concentration of CO2 gas at about 1 minute. At selected timepoints, whole brains were removed from the skull, rinsed in cold PBS to remove blood, dried with clean gauze, then frozen in liquid nitrogen and kept at −75±15° C. before analysis. At the time of analysis, brain samples were homogenized with PBS by tissue weight (g) to PBS volume (mL) ratio 1:3.
Plasma and brain drug levels were quantified by LC/MS/MS on an AB Sciex Triple Quad 5500+instrument, after separation on a HALO 160 A ES-C18, 2.7 μm 2.1×50 mm column. Quantitation was performed using a calibration curve prepared in blank plasma or blank brain homogenate. The software WinNonlin (Phoenix™) was used for pharmacokinetic analysis from the concentrations versus time data, including the AUCinf and AUClast. The Kp ratio (total brain concentration over total plasma concentration) was calculated as (AUCtot,br)/(AUCtot,pl).
The unbound brain exposure was assessed as Kpuu, which is the free brain/free plasma concentration ratio (Cu,bt/Cu,pl). The Cu,br/Cu,pl ratios were obtained from in vivo total brain to plasma ratios (Ctot,br/Ctot,pl) by using in vitro determined Fu,br and Fu,pl.
Plasma protein binding and brain homogenate protein binding were measured by equilibrium dialysis in a HTDialysis plate. The dialysis membranes were soaked in ultrapure water for 60 minutes to separate strips, then in 20% ethanol for 20 minutes, finally in dialysis buffer for 20 minutes. The dialysis set up was assembled according to the manufacturer's instruction. Each cell received 150 μL of plasma or brain homogenate spiked with 1 mM of compound, and dialyzed against an equal volume of dialysis buffer (PBS). The dialysis plate was sealed and incubated in an incubator at 37° C. with 5% CO2 at 100 rpm for 6 hours. At the end of incubation, compound concentration was measured in both chambers by LC-MS/MS on a Triple Quad™ 5500 from AB Inc after separation on a XSelect Hss T3.2.5μ (2.1×30 mm) column. Free fraction (Fu) was calculated as (Peak Area Ratio buffer chamber/Peak Area Ratio plasma chamber). Kpuu=(AUCtot,br×Fu,br)/([…])
The Kpu,u was then calculated upon correcting this kp value with mouse plasma protein binding and mouse brain homogenates binding.
A Kpu,u value >0.3 is considered brain penetrant, and a Kpu,u value ≤0.3 is not considered brain penetrant. When the Kpu,u value is not determined, the Kp value may be useful as a metric of potential brain penetrance if the Kp value is >0.3.

[2] = Solubility Protocol in Phosphate Buffered Saline (PBS); type: physicochemical; settings: for solubility kinetic at 2 h / solubility at 2 h: phosphate buffered saline (PBS), 18 °C, kinetic from dmso stock; for solubility kinetic at 2 h: aqueous buffer; for solubility kinetic at 2 h / Sol (PBS): PBS pH 7.4, 2 hours at room temperature, kinetic solubility; for solubility at 2 h: pH 7.4, aqueous buffer
Method: (vi) Solubility Protocol in Phosphate Buffered Saline (PBS)
The kinetic solubility of test compounds and control compounds was measured in commercial phosphate buffered saline (PBS), pH 7.4 (Wisent, Canada).
Briefly, a stock solution (20 mM DMSO for controls, and 10 mM DMSO for test compounds) was combined with PBS buffer to reach a targeted concentration of 400 μM for controls and 200 μM for test compounds. The spiked-PBS mixtures were then agitated on a VX-2500 multi-tube vortexer (VWR) for 2 hours at room temperature (18° C.). Following agitation, the samples were filtered on a glass fiber filter (1 μm) and the eluates were diluted 400-fold with a mixture of acetonitrile:water (1:1). Solubility determination was then performed against one standard sample prepared in high organic content at the expected top concentration. The lower limit of quantification was arbitrarily set at 1 μM (400-fold dilution of the top concentration) for assay controls, and 0.5 μM for test compounds. On each experimental run, nicardipine and imipramine were assessed as reference compounds for low and high solubility, respectively. All samples were assessed in triplicate and analyzed by LC-MS/MS (using a CTC PAL autosampler, Thermo Accela UPLC, and a Thermo Quantum mass spectrometer) using electrospray ionization against standards prepared in the same matrix

[3] = Mouse Hepatocyte Stability Assay; type: in vitro ADME; settings: mouse hepatocytes, 37° C.; read-out: Hep (mouse) (t½ min)
Method: (§1) (v) Mouse and Human Hepatocyte Stability Assays
(§2) A hepatocyte stability assay is a laboratory-based method used to determine the metabolic stability of a compound in hepatocytes (liver cells). This assay provides valuable information about how quickly a drug is metabolized in the liver and can be used to assess its potential effectiveness and safety in drug discovery.
(§3) In the assay, cither human or mouse hepatocytes are incubated with the test compound at a controlled temperature of 37° C., for different time periods (e.g., 5, 15, 30, 60, and 120 minutes). At each time point during the incubation, samples are taken, the reaction is terminated, and the amount of test compound remaining analyzed using LC-MS/MS to monitor the disappearance of the test compound over time (Gradient). […] See, e.g., Coe et al., Methods in Pharmacology & Toxicology (2008) 151.

[4] = Human Hepatocyte Stability Assay; type: in vitro ADME; settings: human hepatocytes, 37° C.; read-out: Hep (human) (t½ min)
Method: as §1, §2, §3

human NLRP3 = target: T1, human NLRP3 (Homo sapiens, UniProt Q96P20); experiment: Human Whole Blood (hWB) NLRP3 Assay; type: cell-based; settings: LPS priming, ATP activation, IL-1β levels
T1 construct: Human whole blood is drawn from healthy volunteers after obtaining written informed consent; from tissue
Method: (ii) Human Whole Blood (hWB) NLRP3 Assay
Human whole blood is drawn from healthy volunteers after obtaining written informed consent. Heparin lithium coated tubes are used to collect blood from volunteers. Blood samples are distributed on 96 well plates using 90 μl per well. Priming is performed by adding 5 μl of LPS (026: B6; Sigma L-2654) at a final concentration of 1 μg/ml for 4.5 hours in a humidified incubator with 37° C. 5% CO2. Thirty minutes prior to NLRP3 activation, 5 μl of a 20× compound solution or vehicle (2% dimethylsulfoxide (DMSO)) is added to each well and plates were incubated on a shaker (450 rpm) in a humidified incubator with 37° C., 5% CO2. Activation is then performed by adding 3.3 μl of a 31× ATP solution per well. At the end of the 30 minutes stimulation, the plates are centrifuged (800 g, 10 min, room temperature) and the plasma from each well is frozen at −80° C. IL-1β levels in the supernatant were analyzed using a mesoscale discovery assay (MSD K151TUK) according to the manufacturers’ instructions.

[5] = CDI, mouse, brain (whole brain homogenate) relative to plasma, oral, 20 mpk, brain levels, mice
[6] = CDI, mouse, brain (whole brain homogenate) relative to plasma, po, 20 mg/kg, Kp corrected with mouse plasma protein binding and mouse brain homogenates binding, 20 mpk PO, read-out: Kpu,u
[7] = CDI, mouse, brain (whole brain homogenate) relative to plasma, po, 20 mg/kg
[8] = CDI, mouse, brain (whole brain homogenate) relative to plasma, oral, 20 mpk, brain levels, unbound, mice, read-out: Kpu,u

T1 sequence (Q96P20 whole entry): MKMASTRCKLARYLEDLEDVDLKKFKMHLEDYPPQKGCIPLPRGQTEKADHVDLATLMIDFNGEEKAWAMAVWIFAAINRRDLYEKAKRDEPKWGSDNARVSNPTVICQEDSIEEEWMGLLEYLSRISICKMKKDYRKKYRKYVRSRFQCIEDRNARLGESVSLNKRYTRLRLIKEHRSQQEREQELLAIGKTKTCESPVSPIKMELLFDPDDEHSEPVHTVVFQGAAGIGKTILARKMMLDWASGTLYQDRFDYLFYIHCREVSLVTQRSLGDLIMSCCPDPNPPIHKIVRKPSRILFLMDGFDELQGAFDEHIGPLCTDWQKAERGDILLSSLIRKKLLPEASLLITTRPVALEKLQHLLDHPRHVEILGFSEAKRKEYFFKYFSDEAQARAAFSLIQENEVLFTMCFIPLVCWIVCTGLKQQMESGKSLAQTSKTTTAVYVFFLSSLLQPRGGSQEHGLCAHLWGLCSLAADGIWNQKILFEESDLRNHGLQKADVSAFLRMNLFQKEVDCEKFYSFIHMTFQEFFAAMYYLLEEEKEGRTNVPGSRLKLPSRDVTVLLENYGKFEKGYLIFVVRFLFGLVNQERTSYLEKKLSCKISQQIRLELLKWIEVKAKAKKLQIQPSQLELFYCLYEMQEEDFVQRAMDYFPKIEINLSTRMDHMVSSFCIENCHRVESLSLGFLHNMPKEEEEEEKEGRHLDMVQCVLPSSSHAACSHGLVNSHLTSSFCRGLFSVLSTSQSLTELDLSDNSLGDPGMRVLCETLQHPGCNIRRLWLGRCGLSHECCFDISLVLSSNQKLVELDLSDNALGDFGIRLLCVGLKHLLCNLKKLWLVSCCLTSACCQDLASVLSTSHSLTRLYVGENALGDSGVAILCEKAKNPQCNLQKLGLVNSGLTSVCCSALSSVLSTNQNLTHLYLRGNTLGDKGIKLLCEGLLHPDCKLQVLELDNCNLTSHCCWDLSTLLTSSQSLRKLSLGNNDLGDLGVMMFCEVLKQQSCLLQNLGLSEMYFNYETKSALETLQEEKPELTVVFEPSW

SMILES	Kp [1, 5]	Kpu,u [1, 6]	Kp at 24 h [1, 7]	Kpu,u ([1]; brain levels, unbound, mice)	solubility kinetic at 2 h [2] [µM]	solubility at 2 h [2] [µM]	half-life [3] [h]	half-life [4] [h]	IC50 (human NLRP3) [µM]	Sol (PBS) [2] [µM]	Kpu,u [1, 8]
Oc1cc(Cl)ccc1-c1nnc(N[C@@H]2C[C@@H]3CC[C@H]2O3)c2cnccc12 (single isomer, unassigned) [Compound 3A*]	0.3	0.15	0.3	0.15 —	> 300	> 300	2.17	> 4	1.16	–	–
Oc1cc(C(F)(F)F)ccc1-c1nnc(N[C@@H]2C[C@@H]3CC[C@H]2O3)c2cnccc12 (single isomer, unassigned) [Compound 10A*]	0.46	0.49	0.46	0.49	–	2.1 (≈ 0.845 µg/mL)	1.83	3.17	0.92	2.1	–
Cc1ccc(-c2nnc(N[C@H]3C[C@H]4CC[C@@H](C3)O4)c3cnccc23)c(O)c1 [Compound 2A*-r, 2-(4-(((1R,3r,5S)-8-oxabicyclo[3.2.1]octan-3-yl)amino)pyrido[3,4-d]pyridazin-1-yl)-5-methylphenol]	0.27	0.16	0.27	–	–	1.9 (≈ 0.689 µg/mL)	1.18	> 8	0.33	1.9	0.16
Oc1cc(C(F)(F)F)ccc1-c1nnc(N[C@H]2C[C@H]3CC[C@@H](C2)O3)c2cnccc12 [Compound 4A*-r, 2-(4-(((1R,3r,5S)-8-oxabicyclo[3.2.1]octan-3-yl)amino)pyrido[3,4-d]pyridazin-1-yl)-5-(trifluoromethyl)phenol]	0.13	0.09	0.13	–	–	2.4 (≈ 0.999 µg/mL)	3.33	> 8	1.1	2.4	0.09
Oc1cc(C(F)F)ccc1-c1nnc(N[C@H]2C[C@H]3CC[C@@H](C2)O3)c2cnccc12 [Compound 11A*-r, 2-(4-(((1R,3r,5S)-8-oxabicyclo[3.2.1]octan-3-yl)amino)pyrido[3,4-d]pyridazin-1-yl)-5-(difluoromethyl)phenol]	–	0.06	0.08	–	0.7 (≈ 0.279 µg/mL)	–	3.83	> 4	0.81	0.7	–
Oc1cc(C(F)(F)F)ccc1-c1nnc(N[C@H]2[C@@H]3CC[C@H]2COC3)c2cnccc12 [Compound 13A, 2-(4-(((1R,5S,8s)-3-oxabicyclo[3.2.1]octan-8-yl)amino)pyrido[3,4-d]pyridazin-1-yl)-5-(trifluoromethyl)phenol]	–	0.08	0.1	–	1.4 (≈ 0.583 µg/mL)	–	1.67	4.83	0.34	1.4	–
Cc1ccc(-c2nnc(N[C@H]3[C@@H]4CC[C@H]3COC4)c3cnccc23)c(O)c1F [Compound 15A, 6-(4-(((1R,5S,8s)-3-oxabicyclo[3.2.1]octan-8-yl)amino)pyrido[3,4-d]pyridazin-1-yl)-2-fluoro-3-methylphenol]	–	0.45	0.41	–	> 300	–	0.483	> 8	0.34	>300	–

These reach a lower IC50 (human NLRP3). Values come first.

Kp [1, 5]	Kpu,u [1, 6]	Kp at 24 h [1, 7]	Kpu,u ([1]; brain levels, unbound, mice)	solubility kinetic at 2 h [2] [µM]	solubility at 2 h [2] [µM]	half-life [3] [h]	half-life [4] [h]	IC50 (human NLRP3) [µM]	Sol (PBS) [2] [µM]	Kpu,u [1, 8]	SMILES
0.87	0.44	0.87	–	–	25 (≈ 9.57 µg/mL)	2.67	> 4	0.15	25	0.44	Oc1cc(Cl)ccc1-c1nnc(N[C@H]2[C@@H]3CC[C@H]2COC3)c2cnccc12 [Compound 5A, 2-(4-(((1R,5S,8s)-3-oxabicyclo[3.2.1]octan-8-yl)amino)pyrido[3,4-d]pyridazin-1-yl)-5-chlorophenol]
–	0.51	0.76	–	> 300	–	2.67	> 4	0.2	>300	–	Cc1ccc(-c2nnc(N[C@H]3[C@@H]4CC[C@H]3COC4)c3cnccc23)c(O)c1 [Compound 6A, 2-(4-(((1R,5S,8s)-3-oxabicyclo[3.2.1]octan-8-yl)amino)pyrido[3,4-d]pyridazin-1-yl)-5-methylphenol]
–	0.2	0.37	–	11 (≈ 4.38 µg/mL)	–	2	> 8	0.2	11	–	Oc1cc(C(F)F)ccc1-c1nnc(N[C@H]2[C@@H]3CC[C@H]2COC3)c2cnccc12 [Compound 14A, 2-(4-(((1R,5S,8s)-3-oxabicyclo[3.2.1]octan-8-yl)amino)pyrido[3,4-d]pyridazin-1-yl)-5-(difluoromethyl)phenol]
